For this data set, the target named is ATP-binding cassette sub-family C member 2 (Rattus norvegicus, UniProt Q63120). The data set can be described thus: TP_TRANSPORTER: decrease in biliary excretion in isolated perfused liver from TR- rat. Format: functional.
Sequence of ATP-binding cassette sub-family C member 2 (Q63120 whole entry, the tested form may be a part): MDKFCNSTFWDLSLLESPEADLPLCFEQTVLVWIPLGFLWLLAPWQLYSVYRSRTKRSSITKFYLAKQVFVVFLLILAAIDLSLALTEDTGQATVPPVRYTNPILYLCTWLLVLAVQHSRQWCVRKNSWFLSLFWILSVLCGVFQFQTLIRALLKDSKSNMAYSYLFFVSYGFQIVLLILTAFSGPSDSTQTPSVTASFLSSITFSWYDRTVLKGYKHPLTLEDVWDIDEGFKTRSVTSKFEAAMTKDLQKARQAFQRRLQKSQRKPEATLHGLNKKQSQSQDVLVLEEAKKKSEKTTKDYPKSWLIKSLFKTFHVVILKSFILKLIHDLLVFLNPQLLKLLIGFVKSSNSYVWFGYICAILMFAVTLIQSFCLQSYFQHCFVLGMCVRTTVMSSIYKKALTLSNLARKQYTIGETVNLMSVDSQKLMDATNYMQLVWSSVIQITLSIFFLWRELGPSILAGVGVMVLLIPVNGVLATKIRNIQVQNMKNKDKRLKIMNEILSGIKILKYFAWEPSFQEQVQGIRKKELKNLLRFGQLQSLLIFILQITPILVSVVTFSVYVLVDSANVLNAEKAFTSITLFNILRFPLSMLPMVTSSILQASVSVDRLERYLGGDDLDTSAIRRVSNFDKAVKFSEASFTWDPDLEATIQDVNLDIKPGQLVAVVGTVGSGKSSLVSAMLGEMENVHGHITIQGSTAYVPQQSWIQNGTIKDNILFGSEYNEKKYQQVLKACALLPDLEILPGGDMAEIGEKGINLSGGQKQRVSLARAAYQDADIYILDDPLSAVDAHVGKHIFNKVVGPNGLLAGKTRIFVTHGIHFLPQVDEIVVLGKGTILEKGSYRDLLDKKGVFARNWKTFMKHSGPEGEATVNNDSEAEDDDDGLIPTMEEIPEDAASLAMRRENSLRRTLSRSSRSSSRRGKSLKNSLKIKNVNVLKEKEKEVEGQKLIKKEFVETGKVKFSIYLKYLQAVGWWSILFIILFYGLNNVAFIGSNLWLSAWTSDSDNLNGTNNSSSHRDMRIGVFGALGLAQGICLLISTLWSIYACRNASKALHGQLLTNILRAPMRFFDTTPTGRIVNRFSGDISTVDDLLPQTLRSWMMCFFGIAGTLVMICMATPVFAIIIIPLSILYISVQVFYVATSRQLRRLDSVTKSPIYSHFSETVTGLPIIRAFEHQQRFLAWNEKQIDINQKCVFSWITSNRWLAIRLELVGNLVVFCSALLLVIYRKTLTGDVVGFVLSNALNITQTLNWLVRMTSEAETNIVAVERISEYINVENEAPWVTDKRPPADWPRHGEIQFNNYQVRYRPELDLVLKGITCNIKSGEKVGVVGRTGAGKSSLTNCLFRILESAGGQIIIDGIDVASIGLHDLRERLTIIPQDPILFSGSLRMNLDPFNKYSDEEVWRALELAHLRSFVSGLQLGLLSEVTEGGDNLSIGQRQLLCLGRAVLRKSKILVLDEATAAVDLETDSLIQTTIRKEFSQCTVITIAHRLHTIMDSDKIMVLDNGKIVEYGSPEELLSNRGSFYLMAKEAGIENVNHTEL

`CC(=O)Nc1ccccc1.O=S(=O)(O)O`: the Activity result is “substrate [+]”.

On to `CC(=O)Nc1ccc(O[C@@H]2O[C@H](C(=O)O)[C@@H](O)[C@H](O)[C@H]2O)cc1` [ACETAMINOPHEN GLUCURONIDE], for which the Activity result is “substrate [+]”.

(Values after ChEMBL document CHEMBL2074334, “Altered hepatobiliary disposition of acetaminophen glucuronide in isolated perfused livers from multidrug resistance-associated protein 2-deficient TR(-) rats” (J Pharmacol Exp Ther, 2000).)
